Results: patent publication US20260325542A1, “CANCER TARGETING COMPLEX, AND COMPOSITION COMPRISING SAME FOR PREVENTING OR TREATING CANCER” (EWHA UNIVERSITY - INDUSTRY COLLABORATION FOUNDATION, priority 2023, published 2026)
“Also recorded” adds a separate entry of the source.

How the values were obtained:
c-Myc = test: Western blot, c-Myc level in 4T1 cells; type: cell-based, mouse; conditions: 0 to 10 μM, 24 hours
Description: (§1) Accordingly, Western blot analysis was performed to confirm the anticancer ability by evaluating the presence or absence of degradation of BRD4 and other related proteins (e.g., c-Myc and Bcl-2) when cancer cells were treated with the complex for cancer targeting (ECMal-PROTAC) of example 1. The complex for cancer targeting (ECMal-PROTAC) of example 1 and ARV-771 were prepared as samples.
First, 1×10^5 4T1 cells were dispensed into each well of a 6-well culture plate and cultured for 24 hours at 37° C. and 5% carbon dioxide atmosphere. The cell culture medium was supplemented with various concentrations of ARV-771 (0 to 10 μM) or the complex for cancer targeting (ECMal-PROTAC) of example 1 (0 to 10 μM), and cultured at 37° C. for 24 hours. After the culture was completed, the cells were washed 3 times with PBS, and lysed with a lysis buffer containing 1% […]. Cell debris from the recovered lysate was removed by centrifugation at 12,000 rpm for 25 minutes. After recovering the supernatant, the protein amount was measured using a BCA kit. The supernatant was loaded onto a 10% sodium dodecyl sulfate-polyacrylamide gel. Electrophoresis (SDS-PAGE) was performed, followed by blotting onto a polyvinylidene difluoride (PVDF) membrane. […] The immunoreactive bands on the PVDF membrane were analyzed through an ECL (enhanced chemiluminescence) system.

thiol-blocked BSA = thiol-blocked BSA (Bos taurus, UniProt P02769); test: Selective binding: thiol-blocked BSA, RP-HPLC; parameters: species or system bovine; conditions: thiol-blocked BSA 200 μM, ECMal-PROTAC 140 μM, up to 60 minutes
Chain of thiol-blocked BSA (P02769 25-607): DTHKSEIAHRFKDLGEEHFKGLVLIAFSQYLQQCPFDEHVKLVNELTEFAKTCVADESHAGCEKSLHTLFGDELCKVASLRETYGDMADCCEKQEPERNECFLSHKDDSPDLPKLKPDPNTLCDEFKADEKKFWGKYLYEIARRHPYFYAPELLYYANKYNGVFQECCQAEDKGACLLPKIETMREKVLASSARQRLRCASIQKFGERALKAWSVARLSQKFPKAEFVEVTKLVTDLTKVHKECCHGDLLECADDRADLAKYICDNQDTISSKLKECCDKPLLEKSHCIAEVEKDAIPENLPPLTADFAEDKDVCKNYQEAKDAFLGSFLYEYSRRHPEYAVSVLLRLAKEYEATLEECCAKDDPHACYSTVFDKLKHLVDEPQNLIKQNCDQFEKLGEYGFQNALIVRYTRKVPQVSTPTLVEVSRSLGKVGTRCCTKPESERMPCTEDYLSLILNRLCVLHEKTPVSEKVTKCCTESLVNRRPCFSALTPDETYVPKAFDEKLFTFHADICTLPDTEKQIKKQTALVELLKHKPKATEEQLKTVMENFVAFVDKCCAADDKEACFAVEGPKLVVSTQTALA
Description: To confirm whether the binding of ECMal-PROTAC of example 1 and albumin is specific, thiol-blocked BSA was used. Specifically, thiol-blocked BSA was prepared by mixing 4-maleimidobutyric acid and BSA with a cyc34 blocking agent. The thiol-blocked BSA was diluted with PBS to prepare a solution (200 μM). This was co-incubated by mixing it with the ECMal-PROTAC aqueous solution (140 μM) of example 1 at a 1:1 volume ratio. The culture was collected at incubation times of 0 minutes, 5 minutes, 30 minutes, and 60 minutes. It was quenched with mercaptoethanol, and HPLC spectra for each sample were acquired through concentration gradient of the eluent (ACN/H2O, 20/80 to 80/20 (v/v), 30 minutes).
From the HPLC results for the BSA and complex for cancer targeting (ECMal-PROTAC) mixture in Experimental Example 1 and the thiol-blocked BSA and complex for cancer targeting (ECMal-PROTAC) mixture in Experimental Example 2, the reduction in the HPLC peak area associated with the complex for cancer targeting (ECMal-PROTAC) was quantified.

[1] = system: major organs and cancer tissue; test: Ex vivo biodistribution in major organs and cancer tissue; parameters: species or system mouse; conditions: 24 hours after i.v. 3 mg/kg
Description: 5-week-old female Balb/c and Balb/c nu/nu mice were purchased from NaraBio, Inc (Seoul, Republic of Korea). The mice underwent a 2-week acclimatization period before the example. The mice were raised under free-feeding conditions in a breeding room maintained at a temperature of 22±2° C. and humidity of 40-60% during the example. The light and dark cycle was regulated at 12-hour intervals. All examples were conducted in compliance with the relevant laws and institutional guidelines of the KIST Institutional Animal Care and Use Committee (IACUC; Approval No.: 2021-143).
Cancer animal models were prepared by inoculating 1×10^6 4T1 cells into the left thigh of the mice, and raising them until the tumor volume reached 150-200 mm3.
Samples were prepared as follows to analyze the in vivo therapeutic effect of the complex for cancer targeting (ECMal-PROTAC) of example 1. A Cy5.5-BSA solution (Cy5.5-Alb, Preparation Example 1, 200 μM) diluted with PBS was co-incubated by mixing it with an ECMal-PROTAC aqueous solution (140 μM) of example 1 at a 1:1 volume ratio. […]
To analyze the sample distribution in the excised cancer tissue, the excised major organs and cancer tissue were imaged with the IVIS Lumina Series III system (PerkinElmer, Waltham, MA, USA) and analyzed with Living Image software (PerkinElmer).

BRD4 = molecular target: T1, BRD4 (Mus musculus, UniProt Q9ESU6); test: Western blot, BRD4 degradation in 4T1 cells; type: cell-based; conditions: 24 hours
T1 construct: Western blot after PROTAC (ARV-771 release, VHL recruiting)
Description: as §1
First, 1×10^5 4T1 cells were dispensed into each well of a 6-well culture plate and cultured for 24 hours at 37° C. and 5% carbon dioxide atmosphere. The cell culture medium was supplemented with various concentrations of ARV-771 (0 to 10 μM) or the complex for cancer targeting (ECMal-PROTAC) of example 1 (0 to 10 μM), and cultured at 37° C. for 24 hours. After the culture was completed, the cells were washed 3 times with PBS, and lysed with a lysis buffer containing 1% […]. Cell debris from the recovered lysate was removed by centrifugation at 12,000 rpm for 25 minutes. After recovering the supernatant, the protein amount was measured using a BCA kit. The supernatant was loaded onto a 10% sodium dodecyl sulfate-polyacrylamide gel. Electrophoresis (SDS-PAGE) was performed, followed by blotting onto a polyvinylidene difluoride (PVDF) membrane. After blotting, the PVDF membrane was treated with 5% BSA-containing tris buffered saline containing 0.1% Tween 20 (TBS-T) for 2 hours to suppress the non-specific binding of IgG (immunoglobulin G). It was immediately exposed to a rabbit anti-mouse primary antibody (1,000:1). After treating at 4° C. for 24 hours, the PVDF membrane was washed 3 times with TBS-T and further incubated with an HRP-conjugated mouse anti-rabbit IgG antibody at room temperature for 1 hour. The immunoreactive bands on the PVDF membrane were analyzed through an ECL (enhanced chemiluminescence) system.

[2] = Body weight and systemic side effects; type: in vivo, mouse; conditions: 10 mg/kg, i.v., once every 3 days for 15 days
Description: The control group was administered saline (10 mg/kg) once every 3 days for 15 days through the tail vein (total 4 administrations). The comparison group was administered ARV-771 (10 mg/kg) once every 3 days for 15 days through the tail vein (total 4 administrations). The example group was administered ECMal-PROTAC 10 mg/kg (wquiv. to ARV-771) of example 1 once every 3 days for 15 days through the tail vein (total 4 administrations).
Tumor size and body weight were measured every two days for the control group, the comparison group, and the example group.

[3] = Particle size by DLS before and after binding to albumin; type: physicochemical; conditions: before and after binding to BSA
Description: A BSA solution (200 μM) diluted with PBS was co-incubated by mixing it with an ECMal-PROTAC aqueous solution (140 μM) of example 1 at a 1:1 volume ratio.

interaction with thiol-blocked BSA (thiol-blocked BSA): did not form an interaction
elimination through the kidneys [1]: very low probability of kidney excretion
DC50 (BRD4; Western blot, read-out: DC50 (half-maximal degradation concentration), BRD4): 1810 nM
change in particle size on binding to albumin [3]: no significant change in particle size
SMILES: Cc1ncsc1-c1ccc([C@H](C)NC(=O)[C@@H]2C[C@@H](OC(=O)CCCCn3nnc4c3CCC3C(CC4)C3COC(=O)NCCOCCOCCNC(=O)CCN3C(=O)C=CC3=O)CN2C(=O)[C@@H](NC(=O)COCCCOCCNC(=O)C[C@@H]2N=C(c3ccc(Cl)cc3)c3c(sc(C)c3C)-n3c(C)nnc32)C(C)(C)C)cc1 (some centres unmarked) [ECMal-PROTAC]
c-Myc level (c-Myc): reduces the levels; also recorded: reduced expression
degradation of overexpressed BRD4 protein (BRD4; 0 to 10 μM): degrades the overexpressed BRD4 protein in a concentration-dependent manner; also recorded: induce BRD4 deficiency
systemic side effects [2]: did not show serious systemic side effects
weight loss [2]: no significant weight loss was observed
